Results: patent US6645726B1, “Canine growth hormone secretagogue receptor” (Merck & Co., Inc., priority 1998, dated 2003)

Assays:
cloned canine GHSR = biological target: T1, cloned canine GHSR (Canis lupus familiaris, UniProt A5HKU8); test: [35S]-MK-677 competition binding, cloned canine GHSR membranes; details: competition with 35S-MK-677, crude membranes of transfected COS-7 or HEK-293 cells, 20° C., 1 hr
T1 construct: full-length open reading frame placed in the mammalian expression vector pcDNA-3; expressed in transfected cells; host or cells: COS-7 or HEK-293 (crude membranes)
T1 sequence (A5HKU8 1-349): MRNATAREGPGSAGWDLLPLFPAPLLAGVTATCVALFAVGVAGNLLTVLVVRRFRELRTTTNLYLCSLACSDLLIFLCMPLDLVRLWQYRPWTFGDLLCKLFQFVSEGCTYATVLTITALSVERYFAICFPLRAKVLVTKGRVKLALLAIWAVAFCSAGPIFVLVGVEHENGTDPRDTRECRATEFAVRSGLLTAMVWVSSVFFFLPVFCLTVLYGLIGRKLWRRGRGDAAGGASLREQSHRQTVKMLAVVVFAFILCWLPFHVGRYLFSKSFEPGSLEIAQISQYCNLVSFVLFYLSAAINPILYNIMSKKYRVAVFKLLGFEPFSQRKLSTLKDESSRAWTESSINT
Method: Expression of the canine -GHSR was monitored using a [^35S]-MK-677 binding assay conducted on cells transfected with a canine GHSR expression plasmid (full-length open reading frame placed in the mammalian expression vector pcDNA-3). Mammalian cells (COS-7, HEK-293) were transfected with GHSR expression plasmids using Lipofectamine (GIBCO-BRL; Hawley-Nelson, 1993, Focus 15:73). Transfections were performed in 60 mm dishes on 80% confluent cells (approximately 4×10^5cells) with 8 μg of Lipofectamine and 32 μg of GHSR plasmid DNA.
Binding of ^35S-MK-677 to crude membranes prepared from COS-7 or HEK-293 cells transfected with GHSR expression plasmids was conducted. Crude cell membranes from COS-7 transfectants were prepared on ice, 48 hrs post-transfection. Each 60 mm dish was washed twice with 3 ml of PBS, once with 1 ml homogenization buffer (50 mM Tris-HCl (pH 7.4), 5 mM MgCl2, 2.5 mM EDTA, 30 μg/ml bacitracin). 0.5 ml of homogenization buffer was added to each dish, cells were removed by scraping and then homogenized using a POLYTRON device (Brinkmann, Syosset, N.Y.; 3 bursts of 10 seconds at setting 4). […] After application of the membrane suspension to the filter, the filters were washed 3 times with 3 ml each of ice cold 50 mM Tris-HCl (pH 7.4), 10 mM MgCl2, 2.5 mM-EDTA, and 0.015% Triton X-100, and the bound radioactivity on the filters was quantitated by scintillation counting.

[1] = biological target: T2, native canine pituitary GHSR (Canis lupus familiaris, UniProt A5HKU8); test: [35S]-MK-677 competition binding, native canine pituitary GHSR; details: comparison value
T2 construct: native canine pituitary GHSR; from tissue; host or cells: canine pituitary
T2 sequence (A5HKU8 1-349): as above

IC50 (cloned canine GHSR): 2.2 nM
IC50 [1]: 1 nM
SMILES: CC(C)(N)C(=O)N[C@H](COCc1ccccc1)C(=O)N1CCC2(CC1)CN(S(C)(=O)=O)c1ccccc12 [MK-677]
